Data from patent publication EP3795574A1, “SYNTHESIS AND USAGE OF 1,2-DIAMINODIAMANTANE PLATINUM(II) COMPLEXES” (Justus-Liebig-Universität Gießen, priority 2019, dated 2021).

Assays:
[1] = compared to cisplatin; cited from earlier work
[2] = tested on: testicular cancer; conditions: cited from earlier work
[3] = tested on: guanosine monophosphate (GMP); assay: Nucleotide binding experiment by 1H NMR, GMP; conditions: molar ratio 1:3.5, 37 °C, 66 h, DMF-d7/D2O, compared to cisplatin
From the text: (§1) Formation of DNA cross-links is the crucial part of the platinum cytotoxicity mechanism. To study diaplatin complex 1 activity on nucleotides in comparison to cisplatin we chose guanosine monophosphate (GMP) and deoxyguanosine monophosphate (dGMP) as substrates (Fig 6). The reaction between platinum complexes and GMP or dGMP causes substitution of their leaving group ligands with nucleotide forming monoadducts that quickly lose a second leaving ligand forming bisadducts. The N7 atom of the purine fragment is known to be the preferred site of attachment to platinum, thus causing easily observable downfield NMR shifts of the adjacent H8 atom. The collected ^1H NMR data during incubation of the reaction mixtures provide time-dependent changes of the H8 atom integral, thereby providing insights into the binding rates between the studied complexes (Fig 7).
(§2) A platinum complex solution in DMF-d7 (0.27 mL, 6.9 mM) was reacted with GMP or dGMP in a molar ratio 1:3.5 introduced with a NaClO4 solution in D2O (0.33 mL, 100 mM). The reaction mixture was immediately transferred into an NMR tube and ^1H NMR data were collected every hour for 66 h at 37 °C. The pH was measured immediately after the reaction mixture was prepared and at the end of the reaction at rt.

[4] = tested on: deoxyguanosine monophosphate (dGMP); assay: Nucleotide binding experiment by 1H NMR, dGMP; conditions: molar ratio 1:3.5, 37 °C, 66 h, DMF-d7/D2O, compared to cisplatin
From the text: as §1, §2

[5] = tested on: A2780cis; assay: Cellular viability assay (resazurin / Alamar Blue, 72 h), cisplatin-resistant variant; conditions: 72 h at 37 °C, compared to cisplatin, result in words
[6] = tested on: human ovarian cancer cell line A2780; assay: Cellular viability assay (resazurin / Alamar Blue, 72 h); conditions: A2780, 72 h at 37 °C, compared to cisplatin; result in words
[7] = Solubility of the complexes in solvents

**Q.** Which “increase in concentration to achieve the same effect” value [1] does the source give for N.N.O=C([O-])C1(C(=O)[O-])CCC1.[Pt+2] [Carboplatin] here?
**A.** 20-40 fold

**Q.** For N.N.[Cl][Pt][Cl] [Cisplatin, cis-dichlorodiamineplatinum(II)], which cure rate [2] is on record?
**A.** 90%

**Q.** Which “rate of bisadduct formation” value [3] does the source give for “cis-[1,2-diaminodiamantane]dichlorideplatinum(II) [(R,R)-1]” here?
**A.** faster with (R,R)-1 than with cisplatin

**Q.** And the “rate of bisadduct formation” value [4]?
**A.** faster with (R,R)-1 than with cisplatin

**Q.** With “cis-[1,2-diaminodiamantane]dichlorideplatinum(II) [(S,S)-1]” as the compound, how does the cytotoxicity [5] read?
**A.** lowest efficacy

**Q.** What about the cytotoxicity [6] of the same compound?
**A.** lowest efficacy

**Q.** And the “rate of bisadduct formation” value [4]?
**A.** faster than for (R,R)-1 and cisplatin

**Q.** For “cis-[1,2-diaminodiamantane]dichlorideplatinum(II) [compound 1]”, which solubility ([7]; in DMF) is on record?
**A.** good solubility

**Q.** And the solubility ([7]; in methanol)?
**A.** somewhat soluble

**Q.** With “cis-[1,2-diaminodiamantane]oxalatoplatinum(II) [(S,S)-2]” as the compound, how does the solubility ([7]; […]) read?
**A.** insoluble
